Experimental findings from patent publication US20250049809A1, “INHIBITORS OF MUTANT IDH1 AND IDH2” (Board of Regents, The University of Texas System, priority 2023, published 2025) are described below.

In one experiment the target is U87 IDH1R132H (Homo sapiens (Human), UniProt O75874, R132H). In words: U87 IDH1 R132H 2-HG cellular assay. The experiment is classed as cell-based. As to conditions: extracellular 2HG, 24 h treatment, IDH1 mutant-U-87 isogenic cell line. As for the experimental part: The IDH1 mutant-U-87 isogenic cell line (ATCC HTB-14IG) used to test cellular inhibition is a glioma IDH1R132H mutant isogenic line derived from the parental U-87MG cell line. These cells are maintained in EMEM (ATCC 30-2003) culture media with 10% FBS and 10 U/mL Penicillin-Streptomycin. Twelve thousand cells are plated in polystyrene 384 well cell culture plates (Greiner Bio-One 781091) (12,000 cells/well) approximately 18 hours before compound treatment. Immediately before treatment, the cells are washed twice with PBS, followed by culture media replenishing. Cells are then treated with different concentrations of test compounds (5 μM to 0.3 pM) for 24 h. Extracellular 2HG levels are measured from cell culture media. For analyte extraction, 30 μL of culture media is transferred to 120 uL 100% acetonitrile in a deep 384 well plate and mixed well, followed by 5 min centrifugation at 3700 rpm at room temperature. 100 μL of supernatant is transferred to a flat bottom 384 well plate. Samples are run on the Agilent RapidFire-Mass Spectrometry instrument to detect 2HG levels. The samples from each well were aspirated for 600 ms and loaded onto a HILIC solid-phase extraction cartridge (Agilent) followed by a wash step for 3000 ms with 90% acetonitrile containing 5 mM ammonium acetate. Analytes were then eluted off the cartridge into the Agilent 6460 Triple Quad mass spectrometer with a 4500 ms elution step using 30% acetonitrile containing 5 mM ammonium acetate. The HILIC cartridge was then re-equilibrated by 90% acetonitrile containing 5 mM ammonium acetate for 500 ms. The 2HG was detected by an Agilent 6460 Triple Quad mass spectrometer in negative ion mode. Multiple reaction monitoring was used to quantify 2HG using the precursor ion and product ion at m/z 147.03 and 128.9, respectively. The percent activity of each sample is calculated by using DMSO and control compound treated references, and IC50 values are obtained using the GeneData Screener data analysis program.
Chain of U87 IDH1R132H (O75874 whole entry R132H): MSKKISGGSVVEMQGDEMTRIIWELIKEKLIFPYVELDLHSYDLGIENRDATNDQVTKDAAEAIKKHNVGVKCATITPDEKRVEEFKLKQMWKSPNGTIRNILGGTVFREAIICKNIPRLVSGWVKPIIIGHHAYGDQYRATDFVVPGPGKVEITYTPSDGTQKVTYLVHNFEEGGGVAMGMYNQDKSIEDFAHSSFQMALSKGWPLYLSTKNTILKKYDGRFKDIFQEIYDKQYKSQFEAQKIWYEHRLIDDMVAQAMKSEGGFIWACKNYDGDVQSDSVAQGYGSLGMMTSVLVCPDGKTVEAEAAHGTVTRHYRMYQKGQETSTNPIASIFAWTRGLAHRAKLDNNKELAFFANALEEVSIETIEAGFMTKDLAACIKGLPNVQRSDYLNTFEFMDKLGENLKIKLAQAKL

The target of another experiment is WT IDH2 (Homo sapiens (Human), UniProt P48735). In words: WT IDH2 enzymatic activity assay (NADPH fluorescence). The experiment is classed as biochemical. Particulars: enzyme assay. As for the experimental part: The enzymatic activity of WT IDH2 was assessed by measuring the fluorescence of the NADPH generated in the enzymatic reaction. The assay was performed in 384 well, white ProxiPlates (PerkinElmer, 6008280) in assay buffer containing 50 mM Hepes (Life Technologies, 15630080), 50 mM KCl (Teknova, P0327), 10 mM MgCl2 (Sigma-Aldrich, M1028), 1 mM DTT (Sigma-Aldrich, 43815), 0.02% BSA (Sigma-Aldrich, A3059) at pH 7.5. The final reaction volume was 10 μL. Stock solutions of the test compounds were prepared in 100% DMSO (Sigma, D2650) and serially diluted 1:3 using 100% DMSO. 50 nL of compound were then transferred to the assay plate using the Beckman Coulter ECHO 650 Acoustic Liquid Handler for a final DMSO concentration of 0.5%. 5 μL of WT IDH2 were added to the assay plate for a final concentration of 0.5 nM. 5 μL of assay buffer alone were added to negative control wells. 5 μL of an isocitrate (Sigma-Aldrich, 58790) and NADP (Sigma-Aldrich, N5755) mixture were added to the assay plate for a final concentration of 5 μM and 15 μM, respectively. Fluorescence of NADPH (excitation: 350 nm, emission 450 nm) was immediately measured kinetically for approximately 15 minutes using the BioTek Synergy Neo plate reader.
Chain of WT IDH2 (P48735 40-452): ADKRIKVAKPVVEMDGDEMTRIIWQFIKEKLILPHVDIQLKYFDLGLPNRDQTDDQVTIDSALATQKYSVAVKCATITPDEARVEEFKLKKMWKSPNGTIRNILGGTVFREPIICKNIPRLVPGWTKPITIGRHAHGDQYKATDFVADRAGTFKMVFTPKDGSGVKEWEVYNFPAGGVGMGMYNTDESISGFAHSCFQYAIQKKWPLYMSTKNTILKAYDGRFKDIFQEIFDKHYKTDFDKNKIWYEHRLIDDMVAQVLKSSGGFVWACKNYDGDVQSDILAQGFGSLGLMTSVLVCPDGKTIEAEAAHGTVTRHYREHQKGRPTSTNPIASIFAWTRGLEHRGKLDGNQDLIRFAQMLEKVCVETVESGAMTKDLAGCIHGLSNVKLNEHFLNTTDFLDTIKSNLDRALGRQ

In another experiment the target is mIDH2R140Q (Homo sapiens (Human), UniProt P48735, R140Q). In words: mIDH2 R140Q enzymatic activity assay (NADPH fluorescence). The experiment is classed as biochemical. Particulars: enzyme assay, 1 hour preincubation; read-out: IDH2R140Q IC50. As for the experimental part:
The enzymatic activity of mIDH2R140Q was assessed by measuring the fluorescence of the NADPH. The assay was performed in 384 well, white ProxiPlates (PerkinElmer, 6008280) in assay buffer containing 50 mM Hepes (Life Technologies, 15630080), 50 mM KCl (Teknova, P0327), 10 mM MgCl2 (Sigma-Aldrich, M1028), 1 mM DTT (Sigma-Aldrich, 43815), 0.02% BSA (Sigma-Aldrich, A3059) at pH 7.5. The final reaction volume was 10 μL. Stock solutions of the test compounds were prepared in 100% DMSO (Sigma, D2650) and serially diluted 1:3 using 100% DMSO. 50 nL of compound were then transferred to the assay plate using the Beckman Coulter ECHO 650 Acoustic Liquid Handler for a final DMSO concentration of 0.5%. 5 μL of a mIDH2R140Q and NADPH (Santa Cruz, SC202725C) mixture were added to the assay plate for a final concentration of 3 nM and 10 μM, respectively. 5 μL of NADPH alone were added to negative control wells followed by a 1 hour preincubation at room temperature. 5 μL of alphaketoglutarate (Sigma-Aldrich, K1128) were added to the assay plate for a final concentration of 300 μM. Fluorescence of NADPH (excitation: 350 nm, emission 450 nm) was immediately measured kinetically for approximately 150 minutes using the BioTek Synergy Neo plate reader.

The next experiment has as its target mIDH1R132H (Homo sapiens (Human), UniProt O75874, R132H). In words: mIDH1 R132H enzymatic activity assay (NADPH fluorescence). The experiment is classed as biochemical. As to conditions: enzyme assay; read-out: IDH1R132H IC50. As for the experimental part: The enzymatic activity of mIDH1R132H was assessed by measuring the fluorescence of the NADPH. The assay was performed in 384 well, white ProxiPlates (PerkinElmer, 6008280) in assay buffer containing 50 mM Hepes (Life Technologies, 15630080), 50 mM KCl (Teknova, P0327), 10 mM MgCl2 (Sigma-Aldrich, M1028), 1 mM DTT (Sigma-Aldrich, 43815), 0.02% BSA (Sigma-Aldrich, A3059) at pH 7.5. The final reaction volume was 10 μL. Stock solutions of the test compounds were prepared in 100% DMSO (Sigma, D2650) and serially diluted 1:3 using 100% DMSO. 50 nL of compound were then transferred to the assay plate using the Beckman Coulter ECHO 650 Acoustic Liquid Handler for a final DMSO concentration of 0.5%. […] a mIDH1R132H and NADPH (Santa Cruz, SC202725C) mixture were added to the assay plate for a final concentration of 10 nM and 20 μM, respectively. 5 μL of NADPH alone were added to negative control wells. 5 μL of alphaketoglutarate (Sigma-Aldrich, K1128) were added to the assay plate for a final concentration of 200 μM. Fluorescence of NADPH (excitation: 350 nm, emission 450 nm) was immediately measured kinetically for approximately 60 minutes using the BioTek Synergy Neo plate reader.

Chain of mIDH2R140Q (P48735 40-452 R140Q): as the sequence (P48735 40-452) above, with R101Q counted along it
Chain of mIDH1R132H (O75874 whole entry R132H): as the sequence (O75874 whole entry R132H) above

In general, IC50 refers to the concentration needed to halve the response being measured. Take `C=CC(=O)N1CCN(C2CCCCCCCN3C(=O)OCc4cnc(nc43)N[C@@H](C)c3ccc2cc3)CC1` (stereo partly drawn) [Example 4, (3S)-5-(4-acryloylpiperazin-1-yl)-3-methyl-1^1,1^4-dihydro-1^2H-2-aza-1(7,1)-pyrimido[4,5-d][1,3]oxazina-4(1,4)-benzenacyclododecaphan-1^2-one]: the IC50 at U87 IDH1R132H was 0.2 nM; at WT IDH2, 41200 nM; on mIDH2R140Q, 1680 nM; at mIDH1R132H it was 4 nM.
The like results for `C=CC(=O)N1CCN(C2CCCC/C=C/CN3C(=O)OCc4cnc(nc43)N[C@@H](C)c3ccc2cc3)CC1` (stereo partly drawn) [Example 3, (3S,E)-5-(4-acryloylpiperazin-1-yl)-3-methyl-1^1,1^4-dihydro-1^2H-2-aza-1(7,1)-pyrimido[4,5-d][1,3]oxazina-4(1,4)-benzenacyclododecaphan-10-en-1^2-one] were, in that order, 0.14 nM, 16200 nM, 1440 nM and 3.3 nM.
